Experimental data from PubChem BioAssay AID1996.
In brackets after ≈: the same amount, converted by molar mass.

Conditions: buffer; pH 7.4; 200.0 µM

First: Cc1cccc(N2CCN(C(=O)c3ccc(S(=O)(=O)N(C)c4ccccc4)cc3)CC2)c1C
Second: CC(=O)N(c1cccc(C)c1)S(=O)(=O)c1ccc(Cl)cc1
The solubility kinetic of the first is 4.9-fold lower: 6.7 µg/mL (≈ 14.5 µM) for the first, 32.7 µg/mL (≈ 101 µM) for the second.

First: Cc1cc(C(=O)NCc2cccc(Cl)c2)c2ccccc2n1
Second: O=C(Nc1ccccn1)c1ccc2ccccc2c1O
The solubility kinetic of the first is 5.9-fold lower: 5.3 µg/mL (≈ 17.1 µM) for the first, 31.4 µg/mL (≈ 119 µM) for the second.

`CCN(CC)c1ccc(N)cc1S(=O)(=O)Nc1ccccc1OC` and `CCN(CC)S(=O)(=O)c1ccc(N)cc1` cannot be ordered by solubility kinetic: 41.8 µg/mL (≈ 120 µM) for the first, over 34.2 µg/mL for the second.

`O=c1[nH]c(/C=C/c2ccccc2Cl)c([N+](=O)[O-])c(=O)[nH]1` and `O=[N+]([O-])c1cccnc1Oc1ccccc1F` cannot be ordered by solubility kinetic: over 44.1 µg/mL for the first, over 35.1 µg/mL for the second.

Going from `COc1ccccc1OCCNC(=O)CN1C(=O)NC2(CCCCC2)C1=O` to `COc1ccc(CCNC2CC(=O)N(C3CCCCC3)C2=O)cc1OC` (stereo not drawn), the solubility kinetic falls from over 56.3 µg/mL to 46.4 µg/mL (≈ 129 µM).

First: CC(C)(C)CC(=O)Nc1ccc(S(=O)(=O)NC2=NCCCCC2)cc1
Second: CC1CCN(C(=O)c2ccc(S(=O)(=O)N3CCCCCC3)cc2)CC1
The solubility kinetic of the first is higher: over 54.8 µg/mL for the first, 26 µg/mL (≈ 71.3 µM) for the second.

First: O=[N+]([O-])c1cccc(-c2noc(-c3cccs3)n2)c1
Second: CC(=O)Nc1nc2cccc([N+](=O)[O-])c2s1
The solubility kinetic of the first is lower: under 0.2 µg/mL for the first, 2.8 µg/mL (≈ 11.8 µM) for the second.

Compared with `CC(C)(C)C(=O)O/N=C(\N)c1c(Cl)cccc1Cl`, `Cc1onc(-c2c(Cl)cccc2Cl)c1C(=O)N1CCCCC1` is higher in solubility kinetic: 30.9 µg/mL (≈ 107 µM) for the first, over 50.9 µg/mL for the second.

Compared with `CN(C)c1ccc(C(=O)N(Cc2ccccc2)Cc2ccccc2)cc1`, `CN(Cc1nc2ccccc2n1C)c1ccccc1` is higher in solubility kinetic: under 0.4 µg/mL for the first, over 37.7 µg/mL for the second.

`CC(Oc1ccccc1)C(=O)NC1CCSc2ccccc21` (stereo not drawn) and `CC(Cc1ccccc1)N1Cc2ccccc2C1` (stereo not drawn) are within 1.5-fold of each other in solubility kinetic: 25.9 µg/mL (≈ 82.6 µM) for the first, 35.3 µg/mL (≈ 149 µM) for the second.

First: COCc1cc(C)nc(Nc2ccccc2OC)c1C#N
Second: COc1ccccc1/C=N/OCc1cc(C(C)=O)ccc1OC
The solubility kinetic of the first is 28-fold lower: 0.3 µg/mL (≈ 1.06 µM) for the first, 8.4 µg/mL (≈ 26.8 µM) for the second.

First: O=C(CCc1ccc(S(=O)(=O)N2CCOCC2)cc1)Nc1c(F)cccc1F
Second: Cc1ccc(C(=O)OCC(=O)NCCc2ccc(F)cc2)cc1S(=O)(=O)N1CCOCC1
The solubility kinetic of the first is higher: over 61.6 µg/mL for the first, 57.2 µg/mL (≈ 123 µM) for the second.

`COc1ccc(OC)c(C2NC(=O)CCC2[N+](=O)[O-])c1` (stereo not drawn) and `COc1cc2c(cc1OC)C(C)N(S(=O)(=O)c1ccc(C)cc1)CC2` (stereo not drawn) are within 1.5-fold of each other in solubility kinetic: 40.1 µg/mL (≈ 143 µM) for the first, 26.8 µg/mL (≈ 74.1 µM) for the second.

First: CCOC(CNc1ncnc2sc(-c3ccccc3)cc12)OCC
Second: CCN(c1ccccc1)c1nc2nonc2nc1NCCO
The solubility kinetic of the first is lower: 18.6 µg/mL (≈ 54.2 µM) for the first, over 45 µg/mL for the second.

Going from `COc1ccc(NC(=O)CN2CCN(CC#N)CC2)cc1` to `O=C(CN1CCOCC1)Nc1cc([N+](=O)[O-])ccc1Cl`, the solubility kinetic falls from over 43.3 µg/mL to 9.8 µg/mL (≈ 32.7 µM).

Going from `CC(C)C(=O)Nc1cc(-c2nc3ncccc3o2)ccc1Cl` to `CN(CCc1ccccn1)C(=O)Nc1cccc(Cl)c1`, the solubility kinetic rises from 6 µg/mL (≈ 19 µM) to 38.6 µg/mL (≈ 133 µM) (6.4-fold).

First: CC(=O)CSc1ccc(-c2nc3cc(C)c(C)cc3[nH]2)cn1
Second: S=c1nc(-c2ccccc2)[nH]c2ccc(Br)cc12
The solubility kinetic of the first is higher: 3.9 µg/mL (≈ 12.5 µM) for the first, under 0.3 µg/mL for the second.

`Nc1ccccc1S(=O)(=O)NCCCCc1ccccc1` and `O=C1C(=O)N(CCCc2ccccc2)c2ccccc21` are within 1.5-fold of each other in solubility kinetic: 28.7 µg/mL (≈ 94.3 µM) for the first, 32.5 µg/mL (≈ 122 µM) for the second.

`Cc1onc(-c2ccccc2)c1C(=O)/C=C/N(C)C` and `CN(C)/C(=N\S(=O)(=O)c1ccc(Br)cc1)c1ccccc1` are within 1.5-fold of each other in solubility kinetic: 36.4 µg/mL (≈ 142 µM) for the first, 50.2 µg/mL (≈ 137 µM) for the second.

`Nc1ccc(Sc2nc3ccccc3[nH]2)cc1` and `N#Cc1c(-c2ccccc2)cc(-c2ccccc2)nc1SCC(=O)O` cannot be ordered by solubility kinetic: over 36.2 µg/mL for the first, over 52 µg/mL for the second.

First: COc1ccc(CC(=O)NCCc2cnc[nH]2)cc1
Second: COc1ccc(C(=O)CC(=O)C(=O)Nc2cccc(C(C)=O)c2)cc1
The solubility kinetic of the first is higher: over 38.9 µg/mL for the first, 13.9 µg/mL (≈ 41 µM) for the second.

Going from `O=C(Nc1ccccc1F)c1ccccc1C(=O)Nc1ccccc1F` to `O=C(/C=C/c1ccccc1)Oc1ccccc1C(=S)N1CCOCC1`, the solubility kinetic falls from 32.5 µg/mL (≈ 92.2 µM) to 18.9 µg/mL (≈ 53.5 µM) (1.7-fold).

Compared with `Nc1cccc2c1C(=O)N(CCOc1ccccc1F)C2=O`, `COc1cccc(N2C(=O)/C(=C/c3ccc(C)o3)C(=O)NC2=S)c1` is higher in solubility kinetic: 20.3 µg/mL (≈ 67.6 µM) for the first, over 51.4 µg/mL for the second.

Going from `CC(C)(C)N(Cc1ccccc1)C(=O)COC(=O)C1CCCCC1` to `CC1CCCCC1NC(=O)COC(=O)c1ccc([N+](=O)[O-])o1` (stereo not drawn), the solubility kinetic rises from 24.4 µg/mL (≈ 73.6 µM) to over 46.5 µg/mL.

`Cc1nc(CCNS(=O)(=O)c2cccnc2)cs1` and `Cc1ccc(S(=O)(=O)NCCC(=O)NNc2c(F)c(F)cc(F)c2F)cc1` cannot be ordered by solubility kinetic: over 42.5 µg/mL for the first, over 60.8 µg/mL for the second.

First: O=C(O)/C=C/C(=O)NCCCc1ccccc1
Second: C/C(=N/NC(=O)CNC(=O)c1ccco1)c1ccco1
The solubility kinetic of the first is lower: 19.8 µg/mL (≈ 84.9 µM) for the first, over 41.3 µg/mL for the second.

Going from `CC1CCC(NC(=O)CN2C(=O)C3CC=CCC3C2=O)CC1` (stereo not drawn) to `CC1CC(C)CN(S(=O)(=O)c2cccc3nonc23)C1` (stereo not drawn), the solubility kinetic falls from over 45.7 µg/mL to 5.5 µg/mL (≈ 18.6 µM).

`Cn1cc(C(=O)NCC(=O)Nc2ccccc2Br)cn1` and `CC(C)N(C(=O)Cn1cc(SCC(N)=O)c2ccccc21)C(C)C` cannot be ordered by solubility kinetic: over 50.6 µg/mL for the first, over 52.1 µg/mL for the second.

First: CC(C)(C)c1ccc(N2C(=O)CC(C/C=C/c3ccccc3)C2=O)cc1 (stereo not drawn)
Second: COc1ccc(C(=O)COC(=O)c2ccccn2)c(OC)c1
The solubility kinetic of the first is lower: under 0.7 µg/mL for the first, over 45.2 µg/mL for the second.
